# In patent US20240058344A1, “METHODS OF TREATING NEURODEGENERATIVE DISORDERS AND STAT3-LINKED CANCERS USING SUPPRESSORS OF ELECTRON LEAK” (Cornell University, priority 2020, published 2024):
# Experiments:
# [1] = Solubility in aqueous solutions; assay type: physicochemical
# [2] = test system: U-87 MG glioblastoma cells; test: Glioblastoma cell proliferation, CellTiter-Glo luciferase assay, U-87 MG; assay type: cell-based, human; details: 0-50 μM, 72 and 96 h
# Experimental: (§1) Relative cell density was measured using the CellTiter-Glo luciferase assay. n=3 wells per condition. *p<0.05, **p<0.01, ***p<0.001 vs. 0 μM, one-way ANOVA with Dunnett's multiple comparisons test.
# (§2) The effect of S3QELs on proliferation of glial tumor cells that have different oncogenic mutations was assessed. In particular, proliferation rates were assessed in three different human immortalized glioblastoma cells lines (A-172, T98G, and U-87 MG). A-172 and U-87 lines have mutations in PTEN, a phosphatase that indirectly regulates PI3K activities, whereas T98G cell line has a mutation in p53, a well-known tumor suppressor gene. STAT3 can affect PI3K signaling and p53 transcription and could thereby promote glioblastoma cell proliferation. Whether S3QELs reduce glioblastoma cell proliferation and aberrant intracellular signaling was tested.
# (§3) Briefly, two complementary methods were used to assess cell proliferation, including the CellTiter-Glo assay and DAPI staining of cell nuclei. The effects of S3QEL2 treatment on A-172, T98G, and U-87 MG cells were measured at different drug concentrations (0, 6, 20, 30, 40, or 50 μM) and time-points after treatment (72 or 96 hours). S3QEL2 inhibits proliferation of A-172 and T98G glioblastoma cells in a highly dose-dependent manner and these effects are similar at different time-points (FIG. 15A-B).
# [3] = test system: primary astrocytes; test: Markers of reactivity in primary astrocytes treated with oligomeric Aβ (qRT-PCR); assay type: cell-based, mice; details: oligomeric Aβ 3 μM, S3QEL2 20 μM, 24 h
# Experimental: (FIGS. 11A-11B) Astrocytes isolated from P2-P3 mice were treated with oligomeric Aβ (3 μM) and S3QEL2 (S3, 20 μM) or vehicle (V) for 24 h and analyzed by qRT-PCR (FIG. 11A) or Western blotting (B) and normalized to vehicle controls. (FIG. 11B) Phospho-STAT3 levels were normalized to total STAT3 per sample. n=3 wells per condition; *p<0.05, **p<0.01, ***p<0.001, ANOVA with Dunnett's test.
# To further assess if S3QELs alter glial functions, the effects of S3QEL2 on isolated astrocytes and microglia was tested. […] These markers included genes associated with neurodegeneration and aging, such as complement component C3, which promotes synapse elimination in disease, and phosphorylated STAT3, which is considered a central regulator of astrocytic reactivity.
# [4] = test system: lipocalin-2; test: Lipocalin-2 protein released by primary astrocytes (ELISA); assay type: cell-based, mice; details: A1 cocktail, 60 μM, approximately 24 h
# Experimental: Astrocytes isolated from P2-P3 mice were treated with A1 cocktail consisting of 30 ng/mL TNF-α, 3 ng/mL IL-1α, and 400 ng/mL Clq, and S3QEL2 (S3, 60 μM) or vehicle (Con) for approximately 24 h. Levels of astrocytic lipocalin-2 protein released into the culture media were analyzed by ELISA. n=4 wells per condition. **p<0.01, ***p<0.001, one-way ANOVA with Dunnett's multiple comparisons test.
# [5] = Drug tolerance during chronic oral administration (body weight, behavior); assay type: in vivo, mice
# Experimental: (FIGS. 1C-D) Body weights of male nontransgenic (NTG) or hTauP301S mice treated with S3QEL2 (FIG. 1C) (S3, 5 mg/kg/day, PO in almond butter), S1QEL1.1 (FIG. 1D) (10 mg/kg/day, PO in almond butter), or vehicle. (FIG. 1E) Levels of S3QEL2 in the mouse brain following almond butter (AB) or chow administration at indicated doses for 21 days. (n=15 mice per dose). n=3-15 wild-type mice per condition. (FIG. 1F) Body weight of 4-5-month-old wild-type male mice treated with formulated chow containing S3QEL2 at indicated doses and durations (n=15 mice per dose).
# A series of pharmacokinetic and drug tolerance experiments with S3QEL2 in adult wild-type and transgenic hTauP301S mice was first performed. Different administration routes and drug formulations were tested. […] Chow that was formulated to deliver 0, 5, 15, or 30 mg/kg/day of S3QEL2 was also tested.
# [6] = test system: T98G glioblastoma cells; test: Glioblastoma cell proliferation, CellTiter-Glo luciferase assay, T98G; assay type: cell-based, human; details: 0-50 μM, 72 and 96 h
# Experimental: as §1, §2, §3
# [7] = test system: astrocytic-neuronal co-cultures; test: Neuronal damage (NeuN) and neuronal firing (MEA) in astrocytic-neuronal co-cultures with AAV-TauP301S; assay type: cell-based, mouse; details: 1 μM
# Experimental: (FIG. 10A) Co-cultures were immunostained for NeuN following transduction with AAV encoding human P301S mutant tau. Vehicle (Veh) or S3QEL2 (S3, 1μM) was added on day 8 in vitro and cells were analyzed on day 14. (FIG. 10B) Example traces recorded using multi-electrode array (MEA). Spikes (black) and network bursts (pink boxes). Top traces show population activities. (FIG. 10C) Average neuronal firing (% of baseline) in co-cultures. Mock treatment (control) or AAV-TauP301S with or without S3QEL2 (S3, 1μM) were added on day 6. n=4 wells per condition, *p<0.05, ANOVA with Bonferroni's test.
# (§4) To begin dissecting the mechanisms by which S3QEL2 affects neural cell function and disease-linked processes, studies in primary cultures were conducted. Isolated mouse-derived neurons were transduced with adeno-associated viral vectors (AAVs) encoding wild-type or the P301S mutant form of the human tau protein (FIG. 8A). […] However, S3QEL reduced neuronal damage in the presence of astrocytes (approx. 30% astrocytes, FIG. 10A). Tau can also promote aberrant neuronal activity and hypersynchrony. S3QEL reduced aberrant neuronal firing in tau-transduced neurons co-cultured with astrocytes (FIGS. 10B-10C).
# [8] = test system: genes linked to neuroinflammation and glial reactivity; test: Microfluidic RT-qPCR panel of neuroinflammation-related genes in hippocampi of hTauP301S mice; assay type: in vivo; details: 10-month-old hTauP301S mice, six weeks oral dosing, vs vehicle
# Experimental: Subset of neuroinflammatory markers measured by RT-qPCR in hippocampi of 10-month-old male nontransgenic (NTG) or hTauP301S mice after 6 weeks of oral dosing with 5 mg/kg/day S3QEL2, 10 mg/kg/day S1QEL1.1, or vehicle. […] Average fold-change vs NTG. n=3-5 mice per group.
# Next, studies were conducted to test if S3QEL2 or SIQEL1.1 altered the expression of genes involved in neuroinflammation and glial reactivity in hTauP301S mice.
# [9] = test system: primary neurons; test: Tau-associated neuronal damage in primary neurons cultured alone (AAV-TauP301S, MAP2/NeuN immunostaining); assay type: cell-based, mouse; details: 10 μM; AAV human P301S tau
# Experimental: Primary neurons were immunostained for MAP2 or NeuN following mock treatment or transduction with AAV encoding human P301S mutant tau under the synapsin-1 promoter. Neurons were cultured without (FIGS. 9A-9B) or with (FIGS. 9C-9D) primary mouse microglia. S3QEL2 (S3, 10 μM). n=4 per condition.
# as §4
smiles,measurement,setting,value
CCCN(CCC)c1ncnc2c1cnn2-c1ccc(C)c(C)c1 [S3QEL2],Solubility in aqueous solutions,[1],limited solubility in aqueous solutions
same,"Cell proliferation (relative cell density, CellTiter-Glo)",[2],minimal effect
same,Markers of reactivity (genes incl. complement component C3),[3],reduced markers of reactivity
same,Release of lipocalin-2 protein into culture media,[4],inhibited the release of lipocalin-2
same,Adverse health effects such as weight loss or altered behavior,"[5]; PO in almond butter, S3QEL2 5 mg/kg/day, S1QEL1.1 10 mg/kg/day, NTG or hTauP301S mice",did not result in obvious adverse health effects
same,Tolerability of chow administration,"[5]; chow 5, 15 or 30 mg/kg/day, high doses and long treatment durations, adult wild-type mice",tolerated well
same,"Cell proliferation (relative cell density, CellTiter-Glo)",[6],dose-dependently inhibited cell proliferation
same,Aberrant increases in neuronal firing (MEA) in astrocytic-neuronal co-cultures,[7]; added day 6,prevented
same,Neuronal damage (NeuN) in astrocytic-neuronal co-cultures,"[7]; added day 8, analyzed day 14",prevented neuronal damage
same,Expression of genes linked to neuroinflammation and glial reactivity,[8],reduced expression of diverse genes linked to neuroinflammation and glial reactivity
same,"Tau-associated neuronal damage, neurons cultured alone",[9],did not affect tau-associated neuronal damage
